Test results from publication PMC5983026, “Intraring allostery controls the function and assembly of a hetero-oligomeric class II chaperonin” (The FASEB Journal, 2018).

Columns and labels:
[1] = biological target: T1, Ta RhaD (rhamnose dehydrogenase) (Thermoplasma acidophilum, UniProt Q9HK58); assay: dehydrogenase activity, NADPH absorbance at […] nm; assay type: biochemical; conditions: NADP+ co-substrate, 55 °C; read-out of refolding assay
T1 sequence (Q9HK58 1-254): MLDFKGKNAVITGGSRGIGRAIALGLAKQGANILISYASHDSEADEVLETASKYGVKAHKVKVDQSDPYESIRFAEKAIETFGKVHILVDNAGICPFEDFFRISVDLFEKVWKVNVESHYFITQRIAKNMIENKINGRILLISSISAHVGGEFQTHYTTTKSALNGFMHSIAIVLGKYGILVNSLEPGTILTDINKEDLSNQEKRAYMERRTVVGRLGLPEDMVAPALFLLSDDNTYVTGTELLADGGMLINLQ

[2] = biological target: the molecule itself; assay: SEC + native gel or EMSA; α (intraloop His6) and β co-expressed in E. coli; complexes purified to homogeneity as in ref. 29; integrity by Superose 6 Increase SEC (main peak ≅950 kDa) and native-PAGE 3–12% (≅1 MDa); subunit composition by Tris-Acetate SDS-PAGE (7%) of the purified proteins

## C[C@@H]1OC(O)[C@H](O)[C@H](O)[C@H]1O (stereo partly drawn) [L-rhamnose]
[1]
  dehydrogenase activity, NADPH absorbance at 340 nm: RhaD catalyzes the NADP^+-dependent oxidation of L-rhamnose

B1: Thermoplasma acidophilum thermosome α subunit D94E, with intraloop His6-tag (natural protein)
chain: MMTGQVPILVLKEGTQREQGKNAQRNNIEAAKAIADAVRTTLGPKGMDKMLVDSIGDIIISNDGATILKEMDVEHPTAKMIVEVSKAQDTAVGEGTTTAVVLSGELLKQAETLLDQGVHPTVISNGYRLAVNEARKIIDEIAEKSTDDATLRKIALTALSGKNTGLSNDFLADLVVKAVNAVAEVRDGKTIVDTANIKVDKKNGGSVNDTQFISGIVIDKEKVHSKMPDVVKNAKIALIDSALEIKKTEIEAKVQISDPSKIQDFLNQETNTFKQMVEKIKKSGANVVLCQKGIDDVAQHYLAKEGIYAVRRVKKSDMEKLAKATGAKIVTDLDDLTPSVLGEAETVEERKIGDDRMTFVMGCKNPKAVSILIRGGTDHVVSEVERALNDAIRVVAITKEDGKFLWGGGAVEAELAMRLAKYANSVGGREQLAIEAFAKALEIIPRTLAENAGIDPINTLIKLKAEHEKGRISVGVDLDNNGVGDMKAKGVVDPLRVKTHALESAVEVATMILRIDDVIASKKSTPPSGQGGQGQGMPGGGMPEY
notes: Thermoplasma acidophilum thermosome α subunit, NCBI CAC12109; site-directed mutant of construct aK144HTTherm; also called Asp94α to a glutamate residue; not shown: His6, internal (intraloop), kept
[2]
  stoichiometry N: 16
